{
  "source": "patent US20050119275A1",
  "about": "“Salt and crystal forms of (5-chloro-2-{2-[4-(4-fluoro-benzyl)-(2R,5S)-2,5-dimethyl-piperazin-1-yl]-2-oxo-ethoxy}-phenyl)-methanesulfonic acid” (Pfizer Inc., priority 2003, published 2005)",
  "key": {"CCR1 [1]": {"target": "T1, CCR1 (Homo sapiens, UniProt P32246)", "T1 sequence (P32246 1-355)": "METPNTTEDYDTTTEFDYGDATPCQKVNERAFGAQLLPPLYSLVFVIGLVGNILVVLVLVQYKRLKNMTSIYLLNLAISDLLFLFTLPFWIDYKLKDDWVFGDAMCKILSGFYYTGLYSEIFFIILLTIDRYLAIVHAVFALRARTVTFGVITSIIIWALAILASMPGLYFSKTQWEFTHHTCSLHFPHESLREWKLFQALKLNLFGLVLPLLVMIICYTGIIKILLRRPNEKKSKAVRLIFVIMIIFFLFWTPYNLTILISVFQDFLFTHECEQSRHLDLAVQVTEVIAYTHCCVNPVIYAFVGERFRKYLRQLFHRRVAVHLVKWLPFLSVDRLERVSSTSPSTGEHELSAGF", "experiment": "Inhibition of MIP-1α (CCL3) binding to its receptor CCR1", "details": "CCR1 found on inflammatory and immunomodulatory cells; statement in words"}, "CCR1 [2]": {"target": "T1, CCR1", "experiment": "Chemotaxis assay (Boyden chamber, MIP-1α induced migration)", "assay_type": "cell-based", "parameters": "THP-1 cells (ATCC TIB-202), primary human monocytes, or primary lymphocytes, isolated by standard techniques can then be added to the upper chambers; endogenous in cells; host or cells: THP-1 cells (ATCC TIB-202), primary human monocytes or primary lymphocytes", "details": "statement in words", "from_the_text": "The activity of the compounds of the invention can be assessed according to procedures know to those of ordinary skill in the art. Examples of recognized methods for determining CCR1 induced migration can be found in Coligan, J. E., Kruisbeek, A. M., Margulies, D. H., Shevach, E. M., Strober, W. editors: Current Protocols In Immunology, 6.12.1-6.12.3. (John Wiley and Sons, NY, 1991). One specific example of how to determine the activity of a compound for inhibiting migration is described in detail below.\nThe ability of compounds to inhibit the chemotaxis to various chemokines can be evaluated using standard 48 or 96 well Boyden Chambers with a 5 micron polycarbonate filter. […] The amount of agonist chosen is that determined to give the maximal amount of chemotaxis in this system (e.g., 1 nM for MIP-1α should be adequate). […]\nAfter a suitable incubation period at 37 degrees centigrade (e.g. 3.5 hours for THP-1 cells, 90 minutes for primary monocytes), the chamber is removed, the cells in the upper chamber aspirated, the upper part of the filter wiped and the number of cells migrating can be determined according to the following method.\nFor THP-1 cells, the chamber (a 96 well variety manufactured by Neuroprobe) can be centrifuged to push cells off the lower chamber and the number of cells can be quantitated against a standard curve by a color change of the dye fluorocein diacetate. […]"}},
  "data": [
    {"smiles": "C[C@@H]1CN(Cc2ccc(F)cc2)[C@@H](C)CN1C(=O)COc1ccc(Cl)cc1CS(=O)(=O)O", "note": "[(5-Chloro-2-{2-[4-(4-fluoro-benzyl)-(2R,5S)-2,5-dimethyl-piperazin-1-yl]-2-oxo-ethoxy}-phenyl)-methanesulfonic acid]", "values": [
      {"measurement": "inhibition of MIP-1α (CCL3) binding to its receptor CCR1", "setting": "CCR1 [1]", "result": "potent inhibitor"},
      {"measurement": "inhibition of MIP-1α (and related chemokines) induced chemotaxis of THP-1 cells and human leukocytes", "setting": "CCR1 [2]", "result": "inhibits"}
    ]}
  ]
}
